Data from patent publication US20200316090A1, “TARGETED THERAPEUTICS” (MADRIGAL PHARMACEUTICALS, INC., priority 2012, published 2020).
Where two headings read alike, the source gives them in different places.

Assays:
HER2 = HER2 degradation in BT-474 cells (Example 3, Method 1 Western blot / Method 2 LI-COR imaging); assay type: cell-based, human; settings: 0.5 μM, overnight
Excerpt: This example illustrates how a HER2 degradation assay may be used as a test to determine and select Hsp90-targeting moieties suitable for use in SDC-TRAPs of the invention, and further illustrates the ability of SDC-TRAPs to target cells preferentially expressing Hsp90. Such a test may further be used to determine the Hsp90 binding ability of SDC-TRAPs of the invention, as well as through competitive binding assays and cell-based Hsp90 client protein degradation assays known in the art.
After treatment, each cytoplasmic sample is prepared from 1×10^6 cells by incubation of cell lysis buffer (#9803, Cell Signaling Technology) on ice for 10 minutes. The resulting supernatant used as the cytosol fractions is dissolved with sample buffer for SDS-PAGE and run on a SDS-PAGE gel, blotted onto a nitrocellulose membrane by using semi-dry transfer. […]
Cells are then fixed in 4% phosphate-buffered paraformaldehyde for 30 minutes at room temperature and then permeabilized by washing five times with 0.1% Triton X-100 in PBS for 5 minutes at room temperature on a shaker. […] The raw data is normalized to DRAQS and the HER2 EC50 is calculated using XLfit™ […]

[1] = Mouse plasma stability (Examples 16-18); assay type: in vitro ADME; settings: 37° C.; for Mouse (5 μM) % Remaining 1 h (37° C.) * / Mouse (10 μM) % Remaining 1 h (37° C.) *: sum of both peaks of parent chromatogram
Experimental: This solution was used to precipitate all plasma samples in the study. 200 μL was pipetted into a 96 deepwell plate over dry ice. 10 μL of 1 mM stock in DMSO was added to a 1.5 mL microfuge tube, then 990 μL of plasma. Samples were mixed by vortex, then 50 μL of each sample was added in triplicate to a 96-well plate containing internal standard solution. This was designated the 0 hour time point sample. 250 μL of the remaining plasma sample was added to each of four 96 deepwell plates—one per time point. Samples were incubated at 37° C. with gentle shaking for 0.25, 0.5, and 1 hour. After each time point, one plate of each sample was removed from the shaker and placed on wet ice for approximately 2 minutes. 50 μL plasma aliquots (in triplicate) were added to the deepwell plate containing internal standard solution. After the last time point was extracted, the 96 deepwell plate was vortexed, then centrifuged at 2-8° C. 150 μL of supernatant was collected and 25 μL of water was added. Samples were mixed and analyzed by LC-MS/MS.
The stability of seven SDC-TRAP types in mouse plasma was measured as follows. 990 μL mouse plasma aliquots from a common stock were spiked with 10 μL of 1 mM stock of one of seven SDC-TRAP samples identified in the table below. Each sample was mixed and divided into 250 μL aliquots, each representing time points 0, 15 minutes, 30 minutes or 1 hour. At the prescribed time point, 3×50 μL samples were each mixed with 200 μL of methanol containing internal standard and held on dry ice until all time point samples were extracted. The samples collectively were vortex mixed for 1.5 minutes at 1500 rpm, then centrifuged at 4400 rpm for 10 minutes at 8° C.

[2] = Tissue distribution of SDC-TRAP and degradation products in tumor-bearing mice (plasma, tumor, heart); assay type: in vivo, Female SCID Mouse (H1975); settings: mouse, in vivo
Experimental: A 150 ng/mL solution of SDC-TRAP-0002 in methanol was prepared using an internal spiking solution (500 μg/mL SDC-TRAP-0002 in DMSO). Using the 10 mM stock solutions of the SDC-TRAP molecule and its Hsp90i binding moiety and effector moiety in DMSO, spiking solutions were prepared at 0.025, 0.05, 0.1, 0.5, 1, 5, 10, 50, 100, 250, and 500 μM in DMSO. 5 μL of each spiking solution was added to a 96-deep well plate.
Quality control standards were prepared from 5 μL of 0.1, 1, and 10 μM calibration standard spiking solution added in triplicate into 96-deep well plate and adding 50 μL of matrix (plasma or homogenized tumor).
To prepare test samples, test plasma was diluted as needed using blank plasma. Tumor samples were pulverized in liquid nitrogen, weighed, and homogenized in PBS at 5× volume to sample weight. 50 μL of unknown plasma or homogenized tumor sample was mixed with 5 μL of DMSO. The samples were extracted by precipitating calibration standards, QC standards, and unknown samples with 200 μL of internal standard solution. The samples were mixed by vortex at room temperature for approximately 1.5 minutes, then centrifuge at 2-8° C. 150 μL of supernatant was collected and 25 μL of water added. Samples were mixed and analyzed by LC-MS/MS.
Samples of plasma, heart and tumor were excised from a euthanized mouse, homogenized in PBS at 5 times tissue weight and diluted in 5 μL DMSO/50 μL sample. Prior to analysis, 55 μL samples and calibration standards were precipitated in 200 μL methanol in 96-well plates. Samples were mixed on a vortex mixer for 1.5 minutes at 1500 rpm at room temperature, then centrifuged at 4400 rpm for 10 minutes at 8° C. 150 μL of each supernatant was transferred to a well of a new 96-well plate, and 25 μL of water was added and mixed with the sample. […] For the analysis of samples from female SCID mice, a gradient of solvent A (water/0.1% formic acid) and B (acetonitrile/0.1% formic acid) was used as in Table A below.

[3] = Artificial membrane permeability assay (PAMPA)
Experimental: (§1) In order to test the ability SDC-TRAP molecules of the invention to enter cells, an artificial membrane permeability assay (“PAMPA”) was used. […] LC/MS was used in conjunction with PAMPA assays to determine the ability of the SDC-TRAP molecules of the invention to permeate cells.
(§2) Pre-coated PAMPA plates were warmed to room temperature for at least 30 minutes prior to adding assay components.
(§3) Stock solutions were prepared with the SDC-TRAP molecules to be tested. In order to make a working solution, either 50 μL of 100 μM Stock in DMSO+950 μL of PBS or 50 μL of 200 stock was added to 96 deep well plate, resulting in a 5 μM final concentration or a 10 μM final concentration, respectively. […] 200 μL of PBS was added into the corresponding wells of an acceptor PAMPA plates.
(§4) The acceptor plate was lowered onto the donor plate and allowed to incubate for five hours. After five hours, a 50 μL aliquot was removed from each well of each plate and added into a new 96 deep-well plate.
(§5) 100 μL of methanol containing an internal standard was added to each aliquot and analyzed by LC/MS. The internal standard was 150 ng/ml SDC-TRAP-0002.
(§6) In order to calculate the permeability for each SDC-TRAP molecule and the control molecules, the following formula was used:
Permeability (in Unit of Cm/s):
(§7) [formula] • C0=initial compound concentration in donor well (mM) • CD (t)=compound concentration in donor well at time t. (mM) • CA (t)=compound concentration in acceptor well at time t. (mM) • VD=donor well volume=0.3 mL • VA=acceptor well volume=0.2 mL • A=filter area=0.3 cm^2 • t=incubation time=18000 s (5 h)
(§8) For the data presented in the table below, peak area was used in place of concentration in the formula above.

[4] = tested on: MCF-7 breast cancer cells; assay: Mouse xenograft efficacy in an MCF-7 breast cancer model; assay type: in vivo, CD-1 nude mice
Experimental: MCF-7 breast cancer cells were purchased from ATCC. […] Fetal bovine serum was then added to the medium. The final concentration of fetal bovine serum was 10%. Cells were cultured at 37° C. and 5% CO2.
Mice that were not put on treatment were euthanized. Animals were sourced through CRL (Wilmington, Mass.).

[5] = PAMPA
Experimental: as §1, §2, §3, §4, §5, §6
Permeability (in Unit of Cm/s):
as §7, §8

in vitro = settings: PAMPA, Permeability (cm/s)
Experimental: as §1, §2, §3, §4, §5, §6
Permeability (in Unit of Cm/s):
as §7, §8

[6] = Tissue distribution of ganetespib in female CD-1 nu/nu mice bearing RERF human NSCLC xenografts; assay type: in vivo; settings: mouse, tumor, ganetespib 50 mg/kg IV, DRD
Excerpt: Tissue Distribution of Ganetespib in Female CD-1 Nu/Nu Mice Bearing RERF Human NSCLC Xenografts
To confirm the distribution of ganetespib in blood, livers, kidneys, brains, hearts, lungs and tumors after IV administration of ganetespib to female CD-1 nu/nu mice bearing RERF human NSCLC xenografts, and to examine metabolic profiles of ganetespib in plasma, red blood cells, and above tissues.
Animals: female CD-1 nu/nu mice bearing RERF human NSCLC xenografts (N=3/group)
Formulation: 10% DMSO, 18% Cremophor RH40, 3.6% dextrose solution (DRD)
Bleeding time points: 5 min, 6, 24 hr
Collected tissues: blood (plasma and red blood cells (RBC)), liver, kidneys, brain, heart, lung, tumor
Protein precipitation: 50 μL of 10 times diluted plasma or RBC+150 μL ACN (10 mM NH4OAc), vortexed and centrifuged at 10000 rpm for 8 min; 150 μL supernatant+150 μL water (10 mM NH4OAc)
Protein precipitation: 100 μL homogenized tissue (1:3 tissue: PBS buffer)+100 μL ACN (10 mM NH4OAc), vortexed and centrifuged at 10000 rpm for 8 min

C=CCNC1=C2C[C@@H](C)C[C@H](OC)[C@H](O)[C@@H](C)/C=C(\C)[C@H](OC(N)=O)[C@@H](OC)/C=C\C=C(/C)C(=O)NC(=CC1=O)C2=O [17-AAG]
degradation of HER2 (HER2): partial degradation of HER2

CCc1c2c(nc3ccc(OC(=O)N4CCN(Cc5ccc(-n6c(O)nnc6-c6cc(C(C)C)c(O)cc6O)cc5)CC4)cc13)-c1cc3c(c(=O)n1C2)COC(=O)C3(O)CC (stereo not shown) [SDC-TRAP-0046, 4,11-diethyl-4-hydroxy-3,14-dioxo-3,4,12,14-tetrahydro-1H-pyrano[3′,4′:6,7]indolizino[1,2-b]quinolin-9-yl 4-(4-(3-(2,4-dihydroxy-5-isopropylphenyl)-5-hydroxy-4H-1,2,4-triazol-4-yl)benzyl)piperazine-1-carboxylate]
Mouse (5 μM) % Remaining 1 h (37° C.) § ([1]; 5 μM, 1 h, data from single parent peak): 62%
Mouse (5 μM) % Remaining 1 h (37° C.) * ([1]; 5 μM, 1 h): 65%
Mouse (5 μM) % Remaining 19 h (37° C.) ([1]; 5 μM): 37%
Mouse (10 μM) % Remaining 1 h (37° C.) * ([1]; 1 h): 57%
concentration at 12 h ([2]; female, SCID, tissue distribution of SDC-TRAP-0046, 12 h, read-out: Plasma Conc.): 54.2 nM
Kp at 12 h ([2]; female, SCID, tissue distribution of SDC-TRAP-0046, 12 h, read-out: Tumor/Plasma Ratio): 40.3
Papp at 5 h [3]: 0.0122 ×10⁻⁶ cm/s
Mass Retention (%) ([3]; same protocol, second table): 88.1%
Permeability (10^−6 cm/s) ([3]; same protocol, second table): 0.0122 10^−6 cm/s

CCc1c2c(nc3ccc(OC(=O)N4CCC(CCn5ccc6cc(-n7c(O)nnc7-c7cc(C(C)C)c(O)cc7O)ccc65)CC4)cc13)-c1cc3c(c(=O)n1C2)COC(=O)[C@]3(O)CC [SDC-TRAP-0063, 4,11-diethyl-4-hydroxy-3,14-dioxo-3,4,12,14-tetrahydro-1H-pyrano[3′,4′:6,7]indolizino[1,2-b]quinolin-9-yl 4-(2-(5-(3-(2,4-dihydroxy-5-isopropylphenyl)-5-hydroxy-4H-1,2,4-triazol-4-yl)-1H-indol-1-yl)ethyl)piperidine-1-carboxylate]
Kp at 1 h ([2]; female, SCID): 0.17
Kp at 6 h ([2]; female, SCID): 2.25
Kp at 24 h ([2]; female, SCID): 20.4
Kp at 48 h ([2]; female, SCID): 6.85
Kp at […] ([2]; female, SCID): 0.01
concentration at 1 h ([2]; female, SCID): 52.9 µM
concentration at 6 h ([2]; female, SCID): 4000 nM
concentration at 24 h ([2]; female, SCID): 359 nM
concentration at 48 h ([2]; female, SCID): 1110 nM
Tumor Conc. ([2]; female, SCID, 1 h): 9.12 nmol/g of tissue
Tumor Conc. ([2]; female, SCID, 6 h): 8.98 nmol/g of tissue
Tumor Conc. ([2]; female, SCID, 24 h): 7.32 nmol/g of tissue
Tumor Conc. ([2]; female, SCID, 48 h): 7.60 nmol/g of tissue
selective targeting of tumor (tissue distribution in plasma, tumor and heart) [2]: selectively targets and accumulates in tumor cells
suppression of increase in tumor volume ([4]; 150 mg/kg/1×wk versus 100 mg/kg/1×wk (FIG. 8)): appears to prolong the suppression of increase in tumor volume compared to a lower dose (100 mg/kg/1×wk)
tumor growth suppression versus comparators ([4]; either dose (150 or 100 mg/kg/1×wk) (FIG. 8)): greater tumor growth suppression than effector moiety irinotecan alone, or unconjugated binding moiety ganetespib and effector moiety irinotecan administered together
Mass Retention (%) ([3]; same protocol, second table): 18.7%

CC(C)c1cc(-c2nnc(O)n2-c2ccc3c(ccn3CCNC(=O)CCCC[C@@H]3SC[C@@H]4NC(=O)N[C@@H]43)c2)c(O)cc1O [SDC-TRAP-0233]
Mass Retention (%) [5]: 10.9%
Permeability [5]: 2.1e-08 cm/s
Permeability (10^−6 cm/s) [5]: 0.021 10^−6 cm/s

CC(C)c1cc(-c2nnc(O)n2-c2ccc3c(ccn3CCNC(=O)CCCCCNC(=O)CCCC[C@H]3SC[C@H]4NC(=O)N[C@H]43)c2)c(O)cc1O [SDC-TRAP-0234]
Mass Retention (%) [5]: 9.56%
Permeability [5]: 1.23e-08 cm/s
Permeability (10^−6 cm/s) [5]: 0.0123 10^−6 cm/s

CCc1c2c(nc3ccc(O)cc13)-c1cc3c(c(=O)n1C2)COC(=O)[C@]3(O)CC [SN-38, reference compound]
Mouse (5 μM) % Remaining 1 h (37° C.) * ([1]; 5 μM, 1 h): 87%
Mouse (5 μM) % Remaining 19 h (37° C.) ([1]; 5 μM): 52%
Mouse (10 μM) % Remaining 1 h (37° C.) * ([1]; 1 h): 64%
Kp at 6 h ([2]; female, SCID): 5.8
Kp at 12 h ([2]; female, SCID): 105
Kp at 24 h ([2]; female, SCID): 105
Kp at […] ([2]; female, SCID): 0.13
concentration at 6 h ([2]; female, SCID): 77.3 nM
concentration at 12 h ([2]; female, SCID): 9.55 nM
concentration at 24 h ([2]; female, SCID): 9.55 nM
Tumor Conc. ([2]; female, SCID, 24 h): 1.07 nmol/g of tissue
Tumor Conc. ([2]; female, SCID, 48 h): 0.046 nmol/g of tissue
Papp (in vitro; 5 h incubation, peak area used in place of concentration, first table): 0.643 ×10⁻⁶ cm/s
Papp (in vitro; same protocol, second table): 1.87 ×10⁻⁶ cm/s
Mass Retention (%) ([3]; 5 h incubation, first table): 38.2%
Papp at 5 h ([3]; Permeability (10^−6 cm/s), 5 h incubation, peak area used in place of concentration, first table): 0.643 ×10⁻⁶ cm/s
Papp at 5 h ([3]; Permeability (10^−6 cm/s), same protocol, second table): 1.87 ×10⁻⁶ cm/s
Mass Retention (%) ([3]; same protocol, second table): 46.6%

CC(C)c1cc(-c2n[nH]c(=O)n2-c2ccc3c(ccn3C)c2)c(O)cc1O [ganetespib]
concentration at 5 min [6]: 2350 nM
